Laboratory results: PubChem BioAssay (NCI)
Where “and” joins values, the source holds several entries; their conditions need not be identical. Equal values may be shown once.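 96-well plates; 48 h exposure; 5 concentrations. Endpoints by linear interpolation between flanking doses. Not reached: highest tested concentration assigned. GI50 is the concentration that inhibits growth by half. TGI marks complete inhibition of growth.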

How the values were obtained:
Assay in all cases: DTP human tumour cell line panel, 48 h
SN12C renal = test system: SN12C renal
HS 578T breast = test system: HS 578T breast
DU-145 prostate = test system: DU-145 prostate
HL-60(TB) leukemia = test system: HL-60(TB) leukemia
IGROV1 ovarian = test system: IGROV1 ovarian
M14 melanoma = test system: M14 melanoma
SR leukemia = test system: SR leukemia
SNB-75 CNS = test system: SNB-75 CNS
EKVX NSCLC = test system: EKVX NSCLC
MCF7 breast = test system: MCF7 breast

| Compound | TGI (SN12C renal) [µM] | TGI (HS 578T breast) [µM] | TGI (DU-145 prostate) [µM] | TGI (HL-60(TB) leukemia) [µM] | TGI (IGROV1 ovarian) [µM] | TGI (M14 melanoma) [µM] | TGI (SR leukemia) [µM] | TGI (SNB-75 CNS) | TGI (EKVX NSCLC) | TGI (MCF7 breast) [µM] | GI50 (IGROV1 ovarian) | GI50 (M14 melanoma) | GI50 (EKVX NSCLC) |
| --- | --- | --- | --- | --- | --- | --- | --- | --- | --- | --- | --- | --- | --- |
| O=c1[nH]ncc2[nH]c3c(c12)CCc1ccccc1-3 | > 100 | 59.2 | > 100 | 69 | 44.3 | > 100 | > 100 | 76.1 µM | 30.2 µM | – | – | – | – |
| CC1=NC(=N)N=C(C)C1N=Nc1ccc2nc(C)[nH]c2c1 (configuration not stated) | > 100 | > 100 | > 100 | > 100 | > 100 | > 100 | – | > 100 µM | > 100 µM | > 100 | – | – | – |
| CC(=O)CCC1(C(=O)OCC(C)C)CCCC1=O (configuration not stated) | > 100 | > 100 | > 100 | > 100 | > 100 | > 100 | – | > 100 µM | > 100 µM | – | – | – | – |
| Cc1n[nH]c(=O)n1-n1cccc1 | > 100 | > 100 | > 100 | – | > 100 | > 100 | > 100 | > 100 µM | > 100 µM | > 100 | – | – | – |
| CN1C(c2ccccc2)CC(O)CC1c1ccccc1 (configuration not stated) | > 100 | – | – | > 100 | > 100 | > 100 | > 100 | > 100 µM | > 100 µM | – | – | – | – |
| C/C(=N/NC(=S)Nc1ccc(C)cc1)c1ccccn1 | 7.65 | 17 | 10.4 | 0.608 | 13.6 | 2.37 | – | 17.2 µM | 5.12 µM | 16.6 | – | – | – |
| O=C(N/N=C/c1ccccc1)c1c(F)c(F)c(F)c(F)c1F | > 100 | > 100 | > 100 | > 100 | > 100 | > 100 | > 100 | > 100 µM | > 100 µM | – | – | – | – |
| O=C1Nc2noc(=O)nc2NO1 | > 200 | > 200 | > 200 | > 200 | > 200 | > 200 | – | > 200 µM | > 200 µM | > 200 | – | – | – |
| COc1c(OC2OC(CO)C(O)C(O)C2O)cc2c(c1OC)-c1ccc(OC)c(=O)cc1C(NC(C)=O)CC2 (configuration not stated) | > 100 | – | – | > 100 | > 100 | > 100 | > 100 | > 84.4 µM | > 100 µM | – | – | – | – |
| O=C(O)C1CCC(=O)N1C(=O)COc1cc(Cl)c(Cl)cc1Cl (configuration not stated) | > 100 | – | – | – | > 100 | > 100 | – | > 100 µM | > 100 µM | – | – | – | – |
| CCCCCCCCCCCCOCC(COP(=O)(O)OCCN=[N+]=[N-])OC(=O)CCCCCCCCCCC (configuration not stated) | > 100 | – | > 100 | – | – | > 100 | – | – | – | > 100 | – | – | – |
| [C-]#[O+].[Cl][Sn]([Cl])[Cl].[Cl][Sn]([Cl])[Cl].[Pt].c1cnc2c(c1)ccc1cccnc12 | > 61.2 | – | – | 7.95 | 35.7 | – | – | 61.6 µM | 44.4 µM | 56.4 | – | – | – |
| Cc1cccc2c1nc1n2C(=O)c2ccccc2-1 | > 100 | – | > 100 | > 100 | > 100 | > 100 | > 100 | > 100 µM | > 100 µM | > 100 | – | – | – |
| COc1cc2c(cc1O)NC(=O)[C@@H]1C[C@@H](O)CN1C2=O | > 100 | > 100 | > 100 | – | > 100 | > 100 | > 100 | > 100 µM | > 100 µM | > 100 | – | – | – |
| CC(C)(C)C(=O)c1c(O)c2ccccc2c2ccccc2c1=O | > 100 | > 100 | > 100 | > 100 | – | > 100 | – | > 100 µM | > 100 µM | > 100 | – | – | – |
| CC1CC(c2ccccc2)=Nc2ccccc2S1 (configuration not stated) | > 100 | – | – | > 100 | > 100 | > 100 | > 100 | > 100 µM | > 100 µM | – | – | – | – |
| COC1=C(OC)C(=O)C(Cc2c(Cl)nc3sccn23)=C(C)C1=O | 26.2 | 50.3 | 27.2 | 6.98 | 29.1 | 24.3 | 18.5 | – | 20.4 µM | 26.8 | – | – | – |
| O=C1/C(=C\c2cccc(Oc3ccccc3)c2)SC(c2ccccc2)N1c1cc(Cl)ccc1Cl (configuration not stated) | 48.9 | 75.9 | > 100 | 48.1 | > 100 | 84.4 | – | > 100 µM | > 100 µM | > 100 | – | – | – |
| COc1cc(C2c3cc4c(cc3[C@@H](Nc3ccc(F)cc3)C3COC[C@H]23)OCO4)cc(OC)c1O (some centres not stated) | 23.1 | 4.21 | – | 2.29 | > 25 | > 25 | 5.5 | 17 µM | > 25 µM | > 25 | – | – | – |
| COC(=O)Nc1cc(OCCCOC(C)=O)c2[nH]c(C(=O)OC)cc2c1C[C@H](O)CO | > 100 | – | > 100 | > 100 | > 100 | > 100 | > 100 | – | > 100 µM | > 100 | – | – | – |
| COc1ccccc1N=Nc1c(O)ccc2ccccc12 | > 100 | > 100 | > 100 | – | > 100 | > 100 | > 100 | 41.8 µM and 39.7 µM | 36.2 µM and 96.1 µM | > 100 | 3.93 µM and 35.4 µM | 33.6 µM and 85 µM | 4.42 µM and 19.5 µM |
| CCCCCCCCCCCC1=C(O)C(=O)C(CC2=C(O)C(=O)C(CCCCCCCCCCC)=C(O)C2=O)=C(O)C1=O | > 100 | > 100 | > 100 | – | > 100 | > 100 | 42.4 | 37.5 µM | > 100 µM | > 100 | – | – | – |
| Cc1ccc(S(=O)(=O)N/N=c2/sc3ccccc3n2C)cc1 | > 100 | > 100 | > 100 | > 100 | > 100 | – | > 100 | > 100 µM | > 100 µM | – | – | – | – |
| Clc1[nH]nc2ccccc12 | > 100 | > 100 | > 100 | > 100 | > 100 | > 100 | – | > 100 µM | > 100 µM | > 100 | – | – | – |
